# Results from patent US20240360082A1, “SUBSTITUTED PYRIDONE COMPOUNDS USEFUL TO TREAT ORTH[…]” (priority 2021, published 2024).
# Target: influenza A virus minigenome (PB2, PB1, PA, NP proteins) (UniProt P04665)
# Format: cell-based
# Conditions: read-out: RNP_ Hubei B IC50
# Chain of influenza A virus minigenome (PB2, PB1, PA, NP proteins) (P04665 whole entry): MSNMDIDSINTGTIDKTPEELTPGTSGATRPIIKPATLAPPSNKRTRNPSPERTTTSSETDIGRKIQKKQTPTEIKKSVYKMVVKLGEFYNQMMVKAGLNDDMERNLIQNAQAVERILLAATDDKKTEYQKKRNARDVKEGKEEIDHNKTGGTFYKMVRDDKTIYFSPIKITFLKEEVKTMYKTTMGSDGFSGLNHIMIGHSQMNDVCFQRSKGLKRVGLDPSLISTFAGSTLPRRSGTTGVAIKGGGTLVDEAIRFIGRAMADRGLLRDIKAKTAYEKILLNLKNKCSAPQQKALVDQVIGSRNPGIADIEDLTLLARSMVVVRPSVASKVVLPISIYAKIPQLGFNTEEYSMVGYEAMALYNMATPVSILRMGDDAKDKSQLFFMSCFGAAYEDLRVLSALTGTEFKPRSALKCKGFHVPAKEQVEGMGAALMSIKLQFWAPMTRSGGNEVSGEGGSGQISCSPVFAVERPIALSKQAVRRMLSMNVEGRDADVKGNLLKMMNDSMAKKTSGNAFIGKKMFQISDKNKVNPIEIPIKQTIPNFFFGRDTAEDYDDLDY
row,SMILES,IC50 [µM]
1,"C[C@H]1COC[C@@H](COc2ccc(-c3cc(C(N)=O)c(=O)[nH]c3C(F)(F)F)cc2)O1 [Example 330, 5-(4-(((2S,6S)-6-methyl-1,4-dioxan-2-yl)methoxy)phenyl)-2-oxo-6-(trifluoromethyl)-1,2-dihydropyridine-3-carboxamide]",25 to 50
2,"NC(=O)c1cc(-c2ccc(OCC3COCC(COC(F)(F)F)O3)cc2)c(C(F)(F)F)[nH]c1=O (single isomer, unassigned) [Example 373, 2-oxo-5-(4-((6-((trifluoromethoxy)methyl)-1,4-dioxan-2-yl)methoxy)phenyl)-6-(trifluoromethyl)-1,2-dihydropyridine-3-carboxamide]",5 to 10
3,"C[C@]1(CCF)COC[C@@H](COc2ccc(-c3cc(C(N)=O)c(=O)[nH]c3C(F)(F)F)cc2)O1 [Example 435, 5-(4-(((2S,6S)-6-(2-fluoroethyl)-6-methyl-1,4-dioxan-2-yl)methoxy)phenyl)-2-oxo-6-(trifluoromethyl)-1,2-dihydropyridine-3-carboxamide]",5 to 10
4,"NC(=O)c1cc(-c2ccc(OCC3(F)COCCO3)cc2)c(C(F)(F)F)[nH]c1=O (centres unmarked) [Example 388, 5-(4-((2-fluoro-1,4-dioxan-2-yl)methoxy)phenyl)-2-oxo-6-(trifluoromethyl)-1,2-dihydropyridine-3-carboxamide]",5 to 10
5,"COC[C@]1(C)COC[C@@H](COc2ccc(-c3cc(C(N)=O)c(=O)[nH]c3C(F)(F)F)cc2)O1 [Example 406, 5-(4-(((2S,6R)-6-(methoxymethyl)-6-methyl-1,4-dioxan-2-yl)methoxy)phenyl)-2-oxo-6-(trifluoromethyl)-1,2-dihydropyridine-3-carboxamide]",5 to 10
6,"CN1[C@H](COc2ccc(-c3cc(C(N)=O)c(=O)[nH]c3C(F)(F)F)cc2)COC[C@@H]1C1CC1 [Example 209, 5-(4-(((3S,5S)-5-cyclopropyl-4-methylmorpholin-3-yl)methoxy)phenyl)-2-oxo-6-(trifluoromethyl)-1,2-dihydropyridine-3-carboxamide]",5 to 10
7,"NC(=O)c1cc(-c2ccc(OCC3COC(C(F)F)CO3)cc2)c(C(F)(F)F)[nH]c1=O (single isomer, unassigned) [Example 346, 5-(4-((5-(difluoromethyl)-1,4-dioxan-2-yl)methoxy)phenyl)-2-oxo-6-(trifluoromethyl)-1,2-dihydropyridine-3-carboxamide]",5 to 10
8,"CC1(OCC2COCC(COc3ccc(-c4cc(C(N)=O)c(=O)[nH]c4C(F)(F)F)cc3)O2)COC1 (single isomer, unassigned) [Example 378]",5 to 10
9,"NC(=O)c1cc(-c2ccc(OCc3cnc4ccccn34)cc2)c(C(F)(F)F)[nH]c1=O [Example 286, 5-(4-(imidazo[1,2-a]pyridin-3-ylmethoxy)phenyl)-2-oxo-6-(trifluoromethyl)-1,2-dihydropyridine-3-carboxamide]",25 to 50
10,"CC(C)(O)C1COCC(COc2ccc(-c3cc(C(N)=O)c(=O)[nH]c3C(F)(F)F)cc2)O1 (single isomer, unassigned) [Example 354, 5-(4-((6-(2-hydroxypropan-2-yl)-1,4-dioxan-2-yl)methoxy)phenyl)-2-oxo-6-(trifluoromethyl)-1,2-dihydropyridine-3-carboxamide]",5 to 10
11,"C[C@]1(CS(C)(=O)=O)COC[C@@H](COc2ccc(-c3cc(C(N)=O)c(=O)[nH]c3C(F)(F)F)cc2)O1 [Example 412, 5-(4-(((2S,6R)-6-methyl-6-((methylsulfonyl)methyl)-1,4-dioxan-2-yl)methoxy)phenyl)-2-oxo-6-(trifluoromethyl)-1,2-dihydropyridine-3-carboxamide]",5 to 10
12,"NC(=O)c1cc(-c2ccc(OCC3COC(CF)CO3)cc2)c(C(F)(F)F)[nH]c1=O (single isomer, unassigned) [Example 342, 5-(4-((5-(fluoromethyl)-1,4-dioxan-2-yl)methoxy)phenyl)-2-oxo-6-(trifluoromethyl)-1,2-dihydropyridine-3-carboxamide]",5 to 10
13,"NC(=O)c1cc(-c2ccc(OCC3COCC(COC(F)(F)F)O3)cc2)c(C(F)(F)F)[nH]c1=O (single isomer, unassigned) [Example 372, 2-oxo-5-(4-((6-((trifluoromethoxy)methyl)-1,4-dioxan-2-yl)methoxy)phenyl)-6-(trifluoromethyl)-1,2-dihydropyridine-3-carboxamide]",1 to 5
14,"NC(=O)c1cc(-c2ccc(OCc3cnn(CC4CC4)c3)cc2)c(C(F)(F)F)[nH]c1=O [Example 221, 5-(4-((1-(cyclopropylmethyl)-1H-pyrazol-4-yl)methoxy)phenyl)-2-oxo-6-(trifluoromethyl)-1,2-dihydropyridine-3-carboxamide]",10 to 25
15,"CN(C)C[C@]1(C)COC[C@@H](COc2ccc(-c3cc(C(N)=O)c(=O)[nH]c3C(F)(F)F)cc2)O1 [Example 424, 5-(4-(((2S,6R)-6-((dimethylamino)methyl)-6-methyl-1,4-dioxan-2-yl)methoxy)phenyl)-2-oxo-6-(trifluoromethyl)-1,2-dihydropyridine-3-carboxamide]",5 to 10
16,"COCC[C@@]1(C)COC[C@@H](COc2ccc(-c3cc(C(N)=O)c(=O)[nH]c3C(F)(F)F)cc2)O1 [Example 426, 5-(4-(((2S,6S)-6-(2-methoxyethyl)-6-methyl-1,4-dioxan-2-yl)methoxy)phenyl)-2-oxo-6-(trifluoromethyl)-1,2-dihydropyridine-3-carboxamide]",5 to 10
17,"NC(=O)c1cc(-c2ccc(OCC3COCCO3)cc2)c(C(F)(F)F)[nH]c1=O (single isomer, unassigned) [Example 237, 5-(4-((1,4-dioxan-2-yl)methoxy)phenyl)-2-oxo-6-(trifluoromethyl)-1,2-dihydropyridine-3-carboxamide]",25 to 50
18,"COC(C)(C)COCC1COCC(COc2ccc(-c3cc(C(N)=O)c(=O)[nH]c3C(F)(F)F)cc2)O1 (single isomer, unassigned) [Example 371, 5-(4-((6-((2-methoxy-2-methylpropoxy)methyl)-1,4-dioxan-2-yl)methoxy)phenyl)-2-oxo-6-(trifluoromethyl)-1,2-dihydropyridine-3-carboxamide]",5 to 10
19,CC1(OC[C@@]2(C)COC[C@@H](COc3ccc(-c4cc(C(N)=O)c(=O)[nH]c4C(F)(F)F)cc3)O2)COC1 [Example 429],5 to 10
20,"C[C@@H]1COC[C@H](COc2ccc(-c3cc(C(N)=O)c(=O)[nH]c3C(F)(F)F)cc2)O1 [Example 328, 5-(4-(((2R,6R)-6-methyl-1,4-dioxan-2-yl)methoxy)phenyl)-2-oxo-6-(trifluoromethyl)-1,2-dihydropyridine-3-carboxamide]",10 to 25

# Same assay, conditions: read-out: RNP_Hubei B
row,SMILES,IC50 [µM]
1,"NC(=O)c1cc(-c2ccc(OCc3ccsc3)cc2)c(C(F)(F)F)[nH]c1=O [Example 110, 2-oxo-5-(4-(thiophen-3-ylmethoxy)phenyl)-6-(trifluoromethyl)-1,2-dihydropyridine-3-carboxamide]",5 to 10
2,"NC(=O)c1cc(-c2ccc(CC3(F)CCOCC3)cc2)c(C(F)(F)F)[nH]c1=O [Example 51, 5-(4-((4-fluorotetrahydro-2H-pyran-4-yl)methyl)phenyl)-2-oxo-6-(trifluoromethyl)-1,2-dihydropyridine-3-carboxamide]",5 to 10
3,"NC(=O)c1cc(-c2ccc(OCC3CNCCO3)cc2)c(C(F)(F)F)[nH]c1=O (centres unmarked) [Example 189, 5-(4-(morpholin-2-ylmethoxy)phenyl)-2-oxo-6-(trifluoromethyl)-1,2-dihydropyridine-3-carboxamide]",25 to 50
4,"Cn1nccc1COc1ccc(-c2cc(C(N)=O)c(=O)[nH]c2C(F)(F)F)cc1 [Example 126, 5-(4-((1-methyl-1H-pyrazol-5-yl)methoxy)phenyl)-2-oxo-6-(trifluoromethyl)-1,2-dihydropyridine-3-carboxamide]",25 to 50
5,"NC(=O)c1cc(-c2ccc(OCc3cncc(C4(O)COC4)c3)cc2)c(C(F)(F)F)[nH]c1=O [Example 181, 5-(4-((5-(3-hydroxyoxetan-3-yl)pyridin-3-yl)methoxy)phenyl)-2-oxo-6-(trifluoromethyl)-1,2-dihydropyridine-3-carboxamide]",25 to 50
6,"CO[C@H]1CCN(Cc2ccc(-c3cc(C(N)=O)c(=O)[nH]c3C(F)(F)F)cc2)C1 [Example 40, (S)-5-(4-((3-methoxypyrrolidin-1-yl)methyl)phenyl)-2-oxo-6-(trifluoromethyl)-1,2-dihydropyridine-3-carboxamide]",25 to 50
7,"C[C@@H]1CN(Cc2ccc(-c3cc(C(N)=O)c(=O)[nH]c3C(F)(F)F)cc2)C[C@H](C)O1 [Example 35, 5-(4-(((2S,6R)-2,6-dimethylmorpholino)methyl)phenyl)-2-oxo-6-(trifluoromethyl)-1,2-dihydropyridine-3-carboxamide]",25 to 50
8,"COC1CCOC(COc2ccc(-c3cc(C(N)=O)c(=O)[nH]c3C(F)(F)F)cc2)C1 (single isomer, unassigned) [Example 203, 5-(4-((4-methoxytetrahydro-2H-pyran-2-yl)methoxy)phenyl)-2-oxo-6-(trifluoromethyl)-1,2-dihydropyridine-3-carboxamide]",25 to 50
9,"NC(=O)c1cc(-c2ccc(OCc3cccc([N+](=O)[O-])c3)cc2)c(C(F)(F)F)[nH]c1=O [Example 54, 5-(4-((3-nitrobenzyl)oxy)phenyl)-2-oxo-6-(trifluoromethyl)-1,2-dihydropyridine-3-carboxamide]",10 to 25
10,"NC(=O)c1cc(-c2ccc(CN3CCCCC3)cc2)c(C(F)(F)F)[nH]c1=O [Example 44, 2-oxo-5-(4-(piperidin-1-ylmethyl)phenyl)-6-(trifluoromethyl)-1,2-dihydropyridine-3-carboxamide]",25 to 50
11,"CC(C)Oc1ccc(-c2cc(C(N)=O)c(=O)[nH]c2C(F)(F)F)cc1 [Example 17, 5-(4-isopropoxyphenyl)-2-oxo-6-(trifluoromethyl)-1,2-dihydropyridine-3-carboxamide]",10 to 25
12,"COc1ccc(COc2ccc(-c3cc(C(N)=O)c(=O)[nH]c3C(F)(F)F)cc2)cc1 [Example 59, 5-(4-((4-methoxybenzyl)oxy)phenyl)-2-oxo-6-(trifluoromethyl)-1,2-dihydropyridine-3-carboxamide]",5 to 10
